Data as given in PubChem BioAssay (NCI).
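Grown in 96-well plates, cells were treated for 48 hours with each compound at five concentrations. Insufficient inhibition: endpoint recorded as highest concentration tested. GI50: concentration for 50% inhibition of growth. TGI is the concentration that stops growth completely.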

What was measured:
Assay in all cases: NCI tumour cell line growth inhibition, 48 h
[1] = test system: KM20L2 colon
[2] = test system: XF 498 CNS
[3] = test system: SNB-78 CNS
[4] = test system: LXFL 529 NSCLC
[5] = test system: M19-MEL melanoma
[6] = test system: DLD-1 colon
[7] = test system: DMS 114 small cell lung
[8] = test system: HL-60(TB) leukemia
[9] = test system: NCI/ADR-RES ovarian
[10] = test system: HS 578T breast
[11] = test system: DU-145 prostate
[12] = test system: MDA-N
[13] = test system: PC-3 prostate
[14] = test system: MDA-MB-435

Compound	TGI [1] [µM]	TGI [2] [µM]	TGI [3] [µM]	TGI [4] [µM]	TGI [5] [µM]	TGI [6] [µM]	TGI [7] [µM]	TGI [8] [µM]	TGI [9] [µM]	TGI [10] [µM]	TGI [11] [µM]	TGI [12] [µM]	TGI [13] [µM]	TGI [14] [µM]	GI50 [8] [µM]	GI50 [9] [µM]	GI50 [10] [µM]	GI50 [11] [µM]	GI50 [13] [µM]	GI50 [14] [µM]
O=C(N/C(=C\c1ccccc1[N+](=O)[O-])c1nc2ccccc2[nH]1)c1ccccc1	> 100	> 100	> 100	> 100	> 100	> 100														
CC1SC(c2ccccc2)N(Nc2c3ccccc3nc3ccccc23)C1=O (centres undefined)	> 100	> 100	> 100	> 100	> 100	> 100	> 100													
COc1ccc(-c2cc(-c3ccccc3)n(C3OCC(OC(C)=O)C(OC(C)=O)C3OC(C)=O)c(=S)c2C#N)cc1 (centres undefined)								> 100	> 100	> 100	> 100	> 100	> 100	> 100						
COc1cc(-c2n/c(=C\c3c(O)[nH]c4ccc(Cl)cc34)cc3c2=Nc2ccccc2-3)cc(OC)c1OC								38.1	7.55	8.31	2.59		5.92	5.15	10.7	2.01	2.29	0.655	1.82	2.08
C=C(C)[C@@H]1CC[C@]2(C)CC[C@]3(C)[C@H](CC[C@@H]4[C@@]5(C)CC[C@H](OC(=O)c6ccccc6)C(C)(C)[C@@H]5CC[C@]43C)[C@@H]12								> 100	> 100	> 100	> 100	> 100	> 100	> 100						
Nc1ccc2c(c1)C1=NNC(=O)CC1C2 (centres undefined)	> 100	> 100	> 100		> 100	> 100	> 100	> 100	> 100											
CCn1nc(C)c2c1C(=O)NC(C)C(=O)N2 (centres undefined)										> 100	> 100	> 100	> 100	> 100						
COc1ccc(NS(=O)c2ccc(-c3ccccc3)cc2)cc1 (centres undefined)								> 100	> 100	31.2	> 100	> 100	> 100	> 100						
